Laboratory results from paper PMC4904262 (ACS Medicinal Chemistry Letters, 2016).

Columns and labels:
[1] = biological target: FMS (Homo sapiens, UniProt P07333); details: 1 µM, ATP at Km
[2] = biological target: MNK2 (Homo sapiens, UniProt Q9HBH9); details: 1 µM, ATP at Km
[3] = biological target: CAMKIIBETA (Homo sapiens, UniProt Q13554); details: 1 µM, ATP at Km
[4] = biological target: SRC (Homo sapiens, UniProt P12931); details: 1 µM, ATP at Km
[5] = biological target: EPHB2 (Homo sapiens, UniProt P29323); details: 1 µM, ATP at Km
[6] = biological target: LKB1 (Homo sapiens, UniProt Q15831); details: 1 µM, ATP at Km
[7] = biological target: BMX (Homo sapiens, UniProt P51813); details: 1 µM, ATP at Km
[8] = biological target: PKCDELTA (Homo sapiens, UniProt Q05655); details: 1 µM, ATP at Km
[9] = biological target: BLK (Homo sapiens, UniProt P51451); details: 1 µM, ATP at Km
[10] = biological target: MER (Homo sapiens, UniProt Q12866); details: 1 µM, ATP at Km
[11] = biological target: FLT4 (Homo sapiens, UniProt P35916); test: biochemical; details: read-out: FLT4 inhibition
[12] = biological target: EPHB4 (Homo sapiens, UniProt P54760); details: 1 µM, ATP at Km
[13] = biological target: CDK5/P25 (Homo sapiens, UniProt Q00535); details: 1 µM, ATP at Km
[14] = tested on: phospho-STAT1^SER727; test: cells; details: Homo sapiens, SW-620, read-out: pSTAT1^SER727 IC50 ± SD
[15] = biological target: IRR (Homo sapiens, UniProt P14616); details: 1 µM, ATP at Km
[16] = biological target: TRKA (Homo sapiens, UniProt P04629); details: 1 µM, ATP at Km
[17] = biological target: MAPK1 (Homo sapiens, UniProt P27361); details: 1 µM, ATP at Km
[18] = biological target: RET (Homo sapiens, UniProt P07949); details: 1 µM, ATP at Km
[19] = biological target: FYN (Homo sapiens, UniProt P06241); details: 1 µM, ATP at Km
[20] = biological target: WNK2 (Homo sapiens, UniProt Q9Y3S1); details: 1 µM, ATP at Km
[21] = biological target: PAK4 (Homo sapiens, UniProt O96013); details: 1 µM, ATP at Km
[22] = biological target: JNK3 (Homo sapiens, UniProt P53779); details: 1 µM, ATP at Km
[23] = biological target: RIPK2 (Homo sapiens, UniProt O43353); details: 1 µM, ATP at Km
[24] = biological target: NLK (Homo sapiens, UniProt Q9UBE8); details: 1 µM, ATP at Km
[25] = biological target: MAPK2 (Homo sapiens, UniProt P28482); details: 1 µM, ATP at Km
[26] = biological target: AURKA (Homo sapiens, UniProt O14965); details: 1 µM, ATP at Km
[27] = biological target: IR (Homo sapiens, UniProt P06213); details: 1 µM, ATP at Km
[28] = biological target: HIPK2 (Homo sapiens, UniProt Q9H2X6); details: 1 µM, ATP at Km
[29] = biological target: PI3 KINASE (P85A) (Homo sapiens, UniProt P42336); details: 1 µM, ATP at Km
[30] = biological target: STK33 (Homo sapiens, UniProt Q9BYT3); details: 1 µM, ATP at Km
[31] = biological target: MSK1 (Homo sapiens, UniProt O75582); details: 1 µM, ATP at Km
[32] = biological target: FGFR4 (Homo sapiens, UniProt P22455); details: 1 µM, ATP at Km
[33] = biological target: PASK (Homo sapiens, UniProt Q96RG2); details: 1 µM, ATP at Km
[34] = biological target: ACK1 (Homo sapiens, UniProt Q07912); details: 1 µM, ATP at Km
[35] = biological target: ULK2 (Homo sapiens, UniProt Q8IYT8); details: 1 µM, ATP at Km
[36] = biological target: PKCMU (Homo sapiens, UniProt Q15139); details: 1 µM, ATP at Km
[37] = biological target: GSK3ALPHA (Homo sapiens, UniProt P49840); details: 1 µM, ATP at Km
[38] = biological target: EPHB1 (Homo sapiens, UniProt P54762); details: 1 µM, ATP at Km
[39] = biological target: ASK1 (Homo sapiens, UniProt Q99683); details: 1 µM, ATP at Km
[40] = biological target: DAPK2 (Homo sapiens, UniProt Q9UIK4); details: 1 µM, ATP at Km
[41] = biological target: ROS (Homo sapiens, UniProt P08922); details: 1 µM, ATP at Km
[42] = biological target: TAK1 (Homo sapiens, UniProt O43318); details: 1 µM, ATP at Km
[43] = biological target: TEC ACTIVATED (Homo sapiens, UniProt P42680); details: 1 µM, ATP at Km
[44] = biological target: SGK3 (Homo sapiens, UniProt Q96BR1); details: 1 µM, ATP at Km
[45] = biological target: CK1DELTA (Homo sapiens, UniProt P48730); details: 1 µM, ATP at Km
CK1DELTA, sequence (P48730 whole entry): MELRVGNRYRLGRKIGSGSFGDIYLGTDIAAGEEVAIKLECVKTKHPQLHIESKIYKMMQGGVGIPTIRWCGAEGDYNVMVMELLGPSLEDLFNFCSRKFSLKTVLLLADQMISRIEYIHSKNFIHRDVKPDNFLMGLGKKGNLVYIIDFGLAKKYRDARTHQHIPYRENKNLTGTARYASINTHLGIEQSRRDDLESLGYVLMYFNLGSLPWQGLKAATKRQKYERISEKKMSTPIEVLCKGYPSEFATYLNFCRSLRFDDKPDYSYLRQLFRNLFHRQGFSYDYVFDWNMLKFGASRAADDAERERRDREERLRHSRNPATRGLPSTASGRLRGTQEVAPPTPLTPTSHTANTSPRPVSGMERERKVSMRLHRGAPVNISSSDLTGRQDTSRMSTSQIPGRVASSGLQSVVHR

CAMKIIBETA, sequence (Q13554 whole entry): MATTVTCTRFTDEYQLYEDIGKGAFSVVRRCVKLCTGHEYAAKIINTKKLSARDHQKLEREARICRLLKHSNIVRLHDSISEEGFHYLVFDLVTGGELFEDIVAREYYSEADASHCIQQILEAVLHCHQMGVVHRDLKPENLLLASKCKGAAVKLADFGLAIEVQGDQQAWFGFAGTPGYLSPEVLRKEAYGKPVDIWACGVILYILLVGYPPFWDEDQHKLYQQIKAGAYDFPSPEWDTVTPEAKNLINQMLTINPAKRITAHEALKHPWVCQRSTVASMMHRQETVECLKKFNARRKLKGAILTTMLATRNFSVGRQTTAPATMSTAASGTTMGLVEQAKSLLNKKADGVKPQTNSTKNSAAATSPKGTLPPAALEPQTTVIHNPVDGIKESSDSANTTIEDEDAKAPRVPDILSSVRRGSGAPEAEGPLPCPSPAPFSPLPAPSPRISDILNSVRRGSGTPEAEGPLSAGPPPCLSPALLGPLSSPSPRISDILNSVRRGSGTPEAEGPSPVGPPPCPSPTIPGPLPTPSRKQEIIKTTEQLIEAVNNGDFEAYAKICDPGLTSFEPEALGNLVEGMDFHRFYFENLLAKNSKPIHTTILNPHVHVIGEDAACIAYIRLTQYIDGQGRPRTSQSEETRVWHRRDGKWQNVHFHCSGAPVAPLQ
MAPK2, sequence (P28482 whole entry): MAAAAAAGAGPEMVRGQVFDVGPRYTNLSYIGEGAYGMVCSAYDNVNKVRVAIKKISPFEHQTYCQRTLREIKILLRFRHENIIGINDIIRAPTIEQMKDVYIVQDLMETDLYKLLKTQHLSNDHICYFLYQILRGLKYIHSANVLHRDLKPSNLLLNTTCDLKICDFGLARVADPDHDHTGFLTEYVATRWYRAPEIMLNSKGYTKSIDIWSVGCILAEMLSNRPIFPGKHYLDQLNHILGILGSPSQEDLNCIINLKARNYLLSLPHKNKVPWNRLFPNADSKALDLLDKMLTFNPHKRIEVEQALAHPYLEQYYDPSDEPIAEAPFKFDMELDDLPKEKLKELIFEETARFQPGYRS
TAK1, sequence (O43318 1-303 limits assumed): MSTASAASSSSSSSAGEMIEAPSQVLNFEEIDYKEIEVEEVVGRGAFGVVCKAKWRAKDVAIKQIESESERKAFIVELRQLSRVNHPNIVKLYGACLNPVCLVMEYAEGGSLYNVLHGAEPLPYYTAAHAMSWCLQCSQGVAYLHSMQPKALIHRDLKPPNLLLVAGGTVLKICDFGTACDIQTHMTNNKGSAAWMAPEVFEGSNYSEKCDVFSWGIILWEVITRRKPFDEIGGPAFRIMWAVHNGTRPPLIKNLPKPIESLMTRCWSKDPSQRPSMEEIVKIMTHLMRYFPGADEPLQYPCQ
AURKA, sequence (O14965 whole entry): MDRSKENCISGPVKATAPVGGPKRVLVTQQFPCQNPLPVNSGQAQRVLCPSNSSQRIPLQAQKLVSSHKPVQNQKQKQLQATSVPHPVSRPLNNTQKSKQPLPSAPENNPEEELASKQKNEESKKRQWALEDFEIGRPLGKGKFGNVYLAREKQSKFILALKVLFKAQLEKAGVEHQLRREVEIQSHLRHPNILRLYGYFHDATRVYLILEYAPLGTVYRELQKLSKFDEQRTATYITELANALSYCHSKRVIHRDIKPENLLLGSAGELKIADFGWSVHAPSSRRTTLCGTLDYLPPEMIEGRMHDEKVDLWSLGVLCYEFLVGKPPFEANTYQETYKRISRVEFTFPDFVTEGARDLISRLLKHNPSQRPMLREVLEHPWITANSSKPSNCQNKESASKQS
PASK, sequence (Q96RG2 whole entry): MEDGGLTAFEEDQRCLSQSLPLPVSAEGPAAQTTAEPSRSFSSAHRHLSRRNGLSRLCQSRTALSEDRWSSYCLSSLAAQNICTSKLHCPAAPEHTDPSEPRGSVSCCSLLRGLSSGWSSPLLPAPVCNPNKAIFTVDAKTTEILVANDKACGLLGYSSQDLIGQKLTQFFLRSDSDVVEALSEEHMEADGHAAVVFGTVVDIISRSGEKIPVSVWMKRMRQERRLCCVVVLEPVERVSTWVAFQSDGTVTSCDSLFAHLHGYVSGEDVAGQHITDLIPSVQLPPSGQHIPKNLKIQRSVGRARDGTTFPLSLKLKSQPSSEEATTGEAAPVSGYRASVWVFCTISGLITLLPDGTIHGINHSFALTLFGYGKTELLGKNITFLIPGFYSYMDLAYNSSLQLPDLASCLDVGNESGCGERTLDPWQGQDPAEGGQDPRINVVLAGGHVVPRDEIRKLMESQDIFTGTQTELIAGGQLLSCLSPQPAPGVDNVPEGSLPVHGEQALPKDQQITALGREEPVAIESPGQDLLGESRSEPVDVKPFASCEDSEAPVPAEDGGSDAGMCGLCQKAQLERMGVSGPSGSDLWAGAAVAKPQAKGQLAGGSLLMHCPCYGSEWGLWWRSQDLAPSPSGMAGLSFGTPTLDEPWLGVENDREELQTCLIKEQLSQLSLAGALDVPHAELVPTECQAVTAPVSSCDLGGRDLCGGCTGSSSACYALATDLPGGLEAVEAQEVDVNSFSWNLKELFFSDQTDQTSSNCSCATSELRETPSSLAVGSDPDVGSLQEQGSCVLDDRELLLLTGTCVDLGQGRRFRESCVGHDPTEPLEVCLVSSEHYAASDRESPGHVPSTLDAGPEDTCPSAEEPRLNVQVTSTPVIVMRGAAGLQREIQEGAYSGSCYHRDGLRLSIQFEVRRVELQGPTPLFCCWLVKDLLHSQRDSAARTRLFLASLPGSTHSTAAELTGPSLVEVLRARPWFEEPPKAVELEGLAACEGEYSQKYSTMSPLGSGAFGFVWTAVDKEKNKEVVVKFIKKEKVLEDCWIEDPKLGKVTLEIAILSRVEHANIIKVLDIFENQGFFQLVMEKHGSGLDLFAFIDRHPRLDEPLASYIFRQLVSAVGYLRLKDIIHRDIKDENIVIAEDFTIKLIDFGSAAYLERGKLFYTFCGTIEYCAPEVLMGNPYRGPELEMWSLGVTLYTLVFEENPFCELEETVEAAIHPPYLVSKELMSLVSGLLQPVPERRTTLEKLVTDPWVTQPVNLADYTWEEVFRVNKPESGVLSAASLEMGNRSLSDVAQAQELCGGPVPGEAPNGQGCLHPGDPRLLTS
BLK, sequence (P51451 whole entry): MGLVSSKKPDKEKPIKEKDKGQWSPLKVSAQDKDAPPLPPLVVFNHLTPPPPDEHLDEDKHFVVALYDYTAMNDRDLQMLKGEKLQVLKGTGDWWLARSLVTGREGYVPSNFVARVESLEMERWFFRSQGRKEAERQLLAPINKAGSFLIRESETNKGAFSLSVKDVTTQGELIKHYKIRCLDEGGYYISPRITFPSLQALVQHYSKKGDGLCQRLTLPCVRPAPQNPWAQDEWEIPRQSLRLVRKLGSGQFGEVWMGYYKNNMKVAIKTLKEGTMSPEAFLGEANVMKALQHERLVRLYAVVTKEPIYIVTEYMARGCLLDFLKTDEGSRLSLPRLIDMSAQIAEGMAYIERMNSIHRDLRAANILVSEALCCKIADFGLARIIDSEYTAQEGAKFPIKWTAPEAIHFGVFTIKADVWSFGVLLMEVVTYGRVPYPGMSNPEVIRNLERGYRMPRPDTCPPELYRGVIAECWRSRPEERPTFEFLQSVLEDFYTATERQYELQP
PAK4, sequence (O96013 whole entry): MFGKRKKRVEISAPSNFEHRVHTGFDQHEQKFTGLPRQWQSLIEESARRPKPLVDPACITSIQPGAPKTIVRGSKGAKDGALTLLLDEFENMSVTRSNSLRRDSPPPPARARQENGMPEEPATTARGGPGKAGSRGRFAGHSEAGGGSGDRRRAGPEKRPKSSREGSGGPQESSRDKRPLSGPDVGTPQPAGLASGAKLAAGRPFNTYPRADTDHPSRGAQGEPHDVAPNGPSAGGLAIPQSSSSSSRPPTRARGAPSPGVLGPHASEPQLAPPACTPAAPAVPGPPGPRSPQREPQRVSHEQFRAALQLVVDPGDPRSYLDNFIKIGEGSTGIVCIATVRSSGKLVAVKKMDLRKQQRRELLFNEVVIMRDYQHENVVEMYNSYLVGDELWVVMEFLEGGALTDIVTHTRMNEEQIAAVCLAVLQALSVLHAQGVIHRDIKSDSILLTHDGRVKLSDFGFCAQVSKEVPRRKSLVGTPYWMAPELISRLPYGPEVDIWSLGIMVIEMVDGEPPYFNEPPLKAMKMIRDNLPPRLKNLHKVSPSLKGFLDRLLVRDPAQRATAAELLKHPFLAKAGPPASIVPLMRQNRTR
DAPK2, sequence (Q9UIK4 whole entry): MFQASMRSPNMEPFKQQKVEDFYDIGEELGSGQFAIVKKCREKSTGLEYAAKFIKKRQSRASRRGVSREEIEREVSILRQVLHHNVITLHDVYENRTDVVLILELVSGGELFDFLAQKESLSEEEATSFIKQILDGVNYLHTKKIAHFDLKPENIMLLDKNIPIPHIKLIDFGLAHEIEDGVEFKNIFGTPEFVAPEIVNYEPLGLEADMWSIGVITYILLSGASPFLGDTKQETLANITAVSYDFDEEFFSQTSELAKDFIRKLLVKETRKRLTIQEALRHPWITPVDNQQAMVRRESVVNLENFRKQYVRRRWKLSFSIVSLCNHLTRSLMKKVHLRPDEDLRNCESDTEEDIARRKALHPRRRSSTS

Structure (SMILES): COC1CN(C(=O)c2ccc3c(N)ncc(-c4ccc(-c5cnn(C)c5)cc4)c3n2)C1 [Compound 51]
- percentage effect [1]: -37%
- percentage effect [2]: -7%
- percentage effect [3]: -10%
- percentage effect [4]: 7%
- percentage effect [5]: 7%
- percentage effect [6]: -5%
- percentage effect [7]: -3%
- percentage effect [8]: 4%
- percentage effect [9]: 0%
- percentage effect [10]: -3%
- inhibition at 1 µM [11]: 54%
- percentage effect [12]: 8%
- percentage effect [13]: 3%
- IC50 [14]: 17.9 ± 10.6 nM
- percentage effect [15]: -2%
- percentage effect [16]: -23%
- percentage effect [17]: -13%
- percentage effect [18]: -2%
- percentage effect [19]: 1%
- percentage effect [20]: 18%
- percentage effect [21]: 4%
- percentage effect [22]: -33%
- percentage effect [23]: -16%
- percentage effect [24]: -3%
- percentage effect [25]: 6%
- percentage effect [26]: -3%
- percentage effect [27]: 3%
- percentage effect [28]: -8%
- percentage effect [29]: -12%
- percentage effect [30]: -15%
- percentage effect [31]: -2%
- percentage effect [32]: 3%
- percentage effect [33]: -8%
- percentage effect [34]: 0%
- percentage effect [35]: 4%
- percentage effect [36]: -3%
- percentage effect [37]: -17%
- percentage effect [38]: 13%
- percentage effect [39]: 0%
- percentage effect [40]: 5%
- percentage effect [41]: 14%
- percentage effect [42]: -9%
- percentage effect [43]: -18%
- percentage effect [44]: -13%
- percentage effect [45]: 1%

Structure (SMILES): COC1CN(C(=O)c2ccc3c(N)ncc(-c4ccc(-c5cnn(C)c5)cc4)c3c2)C1 [Compound 59]
- percentage effect [1]: -14%
- percentage effect [2]: -4%
- percentage effect [3]: 5%
- percentage effect [4]: -6%
- percentage effect [5]: 24%
- percentage effect [6]: -10%
- percentage effect [7]: 1%
- percentage effect [8]: 0%
- percentage effect [9]: -26%
- percentage effect [10]: -4%
- inhibition at 1 µM [11]: 62%
- percentage effect [12]: 6%
- percentage effect [13]: 11%
- IC50 [14]: 114 ± 20.6 nM
- percentage effect [15]: -5%
- percentage effect [16]: -25%
- percentage effect [17]: -20%
- percentage effect [18]: 6%
- percentage effect [19]: 8%
- percentage effect [20]: -3%
- percentage effect [21]: 10%
- percentage effect [22]: -8%
- percentage effect [23]: -5%
- percentage effect [24]: -5%
- percentage effect [25]: -4%
- percentage effect [26]: -21%
- percentage effect [27]: -15%
- percentage effect [28]: 16%
- percentage effect [29]: 0%
- percentage effect [30]: 1%
- percentage effect [31]: 0%
- percentage effect [32]: 14%
- percentage effect [33]: -4%
- percentage effect [34]: -10%
- percentage effect [35]: 8%
- percentage effect [36]: 10%
- percentage effect [37]: -29%
- percentage effect [38]: -44%
- percentage effect [39]: -10%
- percentage effect [40]: 12%
- percentage effect [41]: -4%
- percentage effect [42]: -13%
- percentage effect [43]: 13%
- percentage effect [44]: 9%
- percentage effect [45]: -10%
